Experimental data published in ChEMBL document CHEMBL6153084, “The development of α, β-unsaturated lactam-based andrographolide derivatives as anti-gastric cancer agents with the ability of inhibiting the ERK/c-Fos/Jun pathway” (Eur J Med Chem, 2025).
The source made the active and inactive calls. The calls are words filed in the database; no cut-off is given here.

Assays:
[1] = Potency index, ratio of 5-fluorouracil IC50 to test compound IC50 for antiproliferative activity against human MGC-803 cells assessed as inhibition of cell growth incubated for 24 to 72 hrs by MTT assay; format: functional; settings: time 24-72 hrs
MGC-803 [2] = assay: Antitumor activity against human MGC-803 cells xenografted in BALB/c mouse assessed as inhibition of tumor growth at 50 mg/kg, IG administered for 14 days; format: functional; settings: MGC-803, po, 336 h, time 14 day, read-out: TGI
MGC-803 [3] = assay: Downregulation of c-FOS mRNA level in human MGC-803 at 4 uM incubated for 24 hrs by RT-qPCR analysis; format: functional, cell-based
MGC-803 [4] = assay: Induction of apoptosis in human MGC-803 cells assessed as early apoptotic cells at 2 uM incubated for 48 hrs by Annexin V-FITC/PI staining based flow cytometry analysis (reference value: 0.30%); format: functional
MGC-803 [5] = assay: Induction of cell cycle arrest in human MGC-803 cells assessed as reduction in CDC25C level incubated for 24 hrs by Western blot analysis; format: functional, cell-based; settings: dose 1-4 µM
MGC-803 [6] = assay: Induction of apoptosis in human MGC-803 cells assessed as upregulation of cleaved PARP expression at 1 to 4 uM incubated for 24 hrs by Western blot analysis; format: functional, cell-based; settings: dose 1-4 µM
[7] = Potency index, ratio of andrographolide IC50 to test compound IC50 for antiproliferative activity against human MGC-803 cells assessed as inhibition of cell growth incubated for 24 to 72 hrs by MTT assay; format: functional; settings: time 24-72 hrs
PC-3 = assay: Antiproliferative activity against human PC-3 cells assessed as inhibition of cell growth incubated for 24 to 72 hrs by MTT assay; format: functional, cell-based; settings: time 24-72 hrs
MGC-803 [8] = assay: Downregulation of FABP3 mRNA level in human MGC-803 cells at 4 uM incubated for 24 hrs by RT-qPCR analysis; format: functional, cell-based
MGC-803 [9] = assay: Induction of apoptosis in human MGC-803 cells assessed as late apoptotic cells at 1 uM incubated for 48 hrs by Annexin V-FITC/PI staining based flow cytometry analysis (reference value: 0.98%); format: functional
MGC-803 [10] = assay: Induction of cell cycle arrest in human MGC-803 cells assessed as accumulation of cells at G2/M phase at 0.5 uM incubated for 48 hrs by PI staining based flow cytometry analysis; format: functional
MGC-803 [11] = assay: Antiproliferative activity against human MGC-803 cells assessed as inhibition of cell growth incubated for 48 hrs by MTT assay; format: functional, cell-based; settings: MGC-803, 48 h
MGC-803 [12] = assay: Induction of apoptosis in human MGC-803 cells assessed as necrotic cells at 2 uM incubated for 48 hrs by Annexin V-FITC/PI staining based flow cytometry analysis (reference value: 0.83%); format: functional
MGC-803 [13] = assay: Antitumor activity against human MGC-803 cells xenografted in BALB/c mouse assessed as inhibition of tumor growth at 25 to 50 mg/kg, IG administered for 14 days; format: functional, organism-based; settings: dose 25-50 mg/kg, time 14.0 day
MGC-803 [14] = assay: Induction of apoptosis in human MGC-803 cells assessed as upregulation of Bax expression at 1 to 4 uM incubated for 24 hrs by Western blot analysis; format: functional, cell-based; settings: dose 1-4 µM

Structure (SMILES): C=C1CC[C@@H]2[C@](C)(CO)[C@H](O)CC[C@@]2(C)[C@@H]1/C=C/C1=CC(=C/c2ccc(C)cc2)/NC1=O
- Ratio IC50 [1]: ~8
- inhibition in vivo at 50 mg/kg (MGC-803 [2]): 50%
- Activity (MGC-803 [3]): Active
- Activity (MGC-803 [4]): 5.47%
- Activity (MGC-803 [5]): Dose-dependent-effect
- Activity (MGC-803 [6]): Active
- Ratio IC50 [7]: ~14
- Activity (PC-3): inactive
- Activity (MGC-803 [8]): Active
- Activity (MGC-803 [9]): 15.1%
- Activity (MGC-803 [10]): 14.5%
- IC50 (MGC-803 [11]): 3.56 µM
- Activity (MGC-803 [12]): 12.9%
- TGI (MGC-803 [13]): Active
- Activity (MGC-803 [14]): Active
